Patent US5376638A (Amylin Pharmaceuticals, Inc., priority 1992, dated 1994)
“Also recorded” adds a separate entry of the source. Where no end group is shown, it is not given here.

Columns and labels:
[1] = plasma lactate and glucose after subcutaneous rat amylin in anesthetized rats; assay type: in vivo, Male Harlan Sprague Dawley rats; conditions: 0.5 mg i.v. bolus + 1 mg/hr infusion before 100 μg s.c. rat amylin
[2] = tested on: amylin-induced hypocalcemia; test: amylin-induced hypocalcemia with antagonist infusion; assay type: in vivo; conditions: 1.5 mg + 3 mg/hr infusion, FIG. 4
plasma renin activity = plasma renin activity after subcutaneous rat amylin in anesthetized rats; assay type: in vivo, Male Harlan Sprague Dawley rats; conditions: 0.5 mg i.v. bolus + 1 mg/hr infusion before 100 μg s.c. rat amylin, n=1, FIG. 3
Description: (§1) Male Harlan Sprague Dawley rats were housed at 22.7°±0.8° C. in a 12:12 hour light:dark cycle (experiments being performed during the light cycle) and fed and watered ad libitum (Diet LM-485, Teklad, Madison, Wis.). Animals used were aged 87-94 days and weighed 353-392 g. They were deprived of food for ~20 hours prior to experimentation.
Anesthesia was induced with 5% halothane, maintained at 2% during surgery and at 0.8-1% during recordings. Tracheotomy and cannulation of the right femoral artery and saphenous vein were performed. […] Colonic temperature was measured using a thermistor probe and controller (Model 73A, YSI, Yellow Springs, Ohio) which provided closed-loop control of core temperature by switching a heated operating table. […]
The remainder was frozen at -20° C. for measurement of plasma renin activity. Plasma renin activity was measured using the Gammacoat™ [^125 I] radioimmunoassay kit (Incstar Corp, Stillwater, Minn.) modified to accomodate small sample volumes. The assay system measured the renin-catalysed rate of generation of angiotensin-I in the presence of phenylmethylsulfonyl fluoride (PMSF) to prevent its proteolytic breakdown and/or conversion to angiotensin-II. Angiotensin-I generated in 90 minutes at 37° C. was then detected by specific radioimmunoassay with less than 0.02% cross reactivity to angiotensin-II, angiotensin-III or tetradecapeptide (renin substrate). […]

vascular CGRP1 receptor = molecular target: T1, vascular CGRP1 receptor (Rattus norvegicus, UniProt Q63118+Q9JJ74); test: hypotensive response to intravenous amylin in vivo; conditions: three times the dose used in this study
T1 construct: from tissue; host or cells: vasculature of the intact animal (in vivo blood pressure response)
T1 sequence (Q63118 24-464): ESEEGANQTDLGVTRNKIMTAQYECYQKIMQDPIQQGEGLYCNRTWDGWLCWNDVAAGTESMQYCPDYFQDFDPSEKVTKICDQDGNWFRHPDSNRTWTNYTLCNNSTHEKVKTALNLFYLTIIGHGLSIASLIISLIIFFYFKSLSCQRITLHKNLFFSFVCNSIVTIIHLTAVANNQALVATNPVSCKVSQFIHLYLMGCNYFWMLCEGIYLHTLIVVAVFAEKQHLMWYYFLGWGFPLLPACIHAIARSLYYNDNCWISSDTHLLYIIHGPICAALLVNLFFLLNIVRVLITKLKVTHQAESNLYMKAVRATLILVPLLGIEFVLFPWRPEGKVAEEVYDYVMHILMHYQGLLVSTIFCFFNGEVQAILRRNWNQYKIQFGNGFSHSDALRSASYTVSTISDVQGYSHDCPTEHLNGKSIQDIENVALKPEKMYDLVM
T1 sequence (Q9JJ74 27-148 partner): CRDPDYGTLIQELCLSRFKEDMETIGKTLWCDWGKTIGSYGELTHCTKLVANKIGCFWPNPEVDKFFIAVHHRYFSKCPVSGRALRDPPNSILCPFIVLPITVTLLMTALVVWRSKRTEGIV

CGRP receptors = CGRP receptors (Homo sapiens, UniProt O60894+Q16602); test: affinity for CGRP receptors in vitro; assay type: binding
Sequence of CGRP receptors (Q16602 23-461): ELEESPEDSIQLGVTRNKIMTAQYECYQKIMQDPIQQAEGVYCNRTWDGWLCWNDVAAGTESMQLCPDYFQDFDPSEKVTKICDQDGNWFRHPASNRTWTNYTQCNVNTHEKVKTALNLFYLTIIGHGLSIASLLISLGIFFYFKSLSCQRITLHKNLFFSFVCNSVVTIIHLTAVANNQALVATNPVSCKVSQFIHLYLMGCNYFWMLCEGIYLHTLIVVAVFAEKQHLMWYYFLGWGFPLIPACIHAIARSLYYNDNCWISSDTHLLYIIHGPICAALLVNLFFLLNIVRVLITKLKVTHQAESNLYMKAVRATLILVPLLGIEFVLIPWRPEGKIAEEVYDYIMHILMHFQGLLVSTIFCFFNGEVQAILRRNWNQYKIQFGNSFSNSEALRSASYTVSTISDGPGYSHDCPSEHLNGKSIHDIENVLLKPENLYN
Sequence of CGRP receptors (O60894 27-148 partner): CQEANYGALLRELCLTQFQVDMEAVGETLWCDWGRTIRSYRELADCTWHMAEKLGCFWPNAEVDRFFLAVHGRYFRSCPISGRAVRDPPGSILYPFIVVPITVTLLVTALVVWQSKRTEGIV

[3] = tested on: insulin-stimulated glycogen synthesis in soleus muscle; test: soleus muscle assay (insulin-stimulated glycogen synthesis); set-up: species or system rat; conditions: for amylin antagonist action in the soleus muscle assay: in the presence of 100 nM rat amylin
Description: Concentrations of peptide dissolved in carrier-free buffers are determined by quantitative amino acid analysis, as described therein. The ability of compounds to act as antagonists in this assay is determined by measuring IC50 values. Standard errors are determined by fitting of sigmoidal dose response curves using a four parameter logistic equation (De Lean, A., Munson, P. J., Guardabasso, V. and Rodbard, D. (1988) ALLFIT, Version 2.7, National Institute of Child Health and Human Development, N.I.H. Bethesda, Md., 1 diskette). […] Similar results were obtained with the other antagonist compounds listed above.

[4] = fed rats, antagonist preinfusion; cited from earlier work
[5] = mean arterial pressure after amylin injection in rats; assay type: in vivo, Male Harlan Sprague Dawley rats; conditions: 100 μg rat amylin s.c., FIG. 1c
Description: as §1
Anesthesia was induced with 5% halothane, maintained at 2% during surgery and at 0.8-1% during recordings. Tracheotomy and cannulation of the right femoral artery and saphenous vein were performed. The femoral arterial line was connected to a pressure transducer (Spectramed P23XL transducer, Model 13-4615-58 amplifier, Gould, Cleveland, Ohio) and perfused with heparinized saline (2 U/ml) at 3.0 ml/hr. Colonic temperature was measured using a thermistor probe and controller (Model 73A, YSI, Yellow Springs, Ohio) which provided closed-loop control of core temperature by switching a heated operating table. The signal for mean arterial pressure was periodically sampled and stored with 12-bit precision at 1 Hz using a computerized data acquisition system (DT2801A A/D converters, DataTranslation, Marlboro, Mass.; AST Premium 386 computer, AST Research, Irvine, Calif.; Labtech Notebook software, Laboratory Technologies Corp, Wilmington, Mass.). […]

Substance: acetyl-^30 Asn^32 Tyr^8-32 calcitonin(salmon)
- amylin-induced increase in plasma glucose after antagonist infusion [1]: prevented
- amylin-induced increase in plasma lactate after antagonist infusion [1]: prevented
- prevention of amylin-induced hypocalcemia [2]: did not prevent
- amylin-induced elevation of plasma renin activity after antagonist preinfusion (plasma renin activity): no amylin-induced elevation
- block of the hypotensive response to intravenous amylin (vascular CGRP1 receptor): does not fully block
- affinity for CGRP receptors in vitro (CGRP receptors): low affinity

Substance: ^8-37 CGRP (VTHRLAGLLSRSGGVVKNNFVPTNVGSKAF; ends and bridges not checked; UniProt P06881 90-119, looked up, fragment) [reference compound]
- agonist activity in the soleus muscle assay [3]: negligible agonist activity
- amylin antagonist action in the soleus muscle assay [3]: act as amylin antagonists
- insulin concentration 30 minutes following arginine infusion versus normal controls [4]: almost twice as high

Substance: ^8-37 amylin (ATQRLANFLVHSSNNFGAILSSTNVGSNTY; ends and bridges not checked; UniProt P10997 41-70, looked up, fragment) [^ 8-37 amylin, amylin receptor antagonist]
- agonist activity in the soleus muscle assay [3]: negligible agonist activity
- amylin antagonist action in the soleus muscle assay [3]: act as amylin antagonists

Substance: rat amylin: Synthetic rat amylin (Bachem, Torrance, Calif.)
- change in mean arterial pressure [5]: lack of change; also recorded: not associated with any significant change

Substance: ^8-32 calcitonin(salmon)
- agonist activity in the soleus muscle assay [3]: negligible agonist activity
- amylin antagonist action in the soleus muscle assay [3]: act as amylin antagonists
